In the METLIN SMRT retention time set (Domingo-Almenara et al. 2019):

Test: gradient 5% acetonitrile 3 min, to 50% in 2 min, to 85% in 15 min, held 3 min, 100 µL/min
Details: column: Zorbax Extend-C18 2.1 x 50 mm; eluents: water / acetonitrile, 0.1% formic acid
In short: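 Values are retention times taken from adduct peaks that software picked and an analyst inspected. The pure standards were run as mixtures of ~100 molecules on HPLC linked to a quadrupole time-of-flight mass spectrometer, in positive and negative ionization mode. A Zorbax Extend-C18 column (2.1 × 50 mm, 1.8 μm) was used at 100 μL/min with water and acetonitrile, each including 0.1% formic acid.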

RP-LC retention time | SMILES
826 s | Cc1ccc(N2CC(C(=O)N3CCC(NS(=O)(=O)c4ccc(C)cc4)CC3)CC2=O)cc1 (configuration not stated)
801 s | O=C(Nc1ccc2scnc2c1)c1ccc(Cl)cc1Cl
1000 s | O=C(c1ccc(Br)o1)N1CCC(c2cnn(-c3cccc(F)c3)c2)CC1
856 s | COC(=O)C1=C(C)NC2=C(C(=O)c3ccccc32)C1c1ccc(OC)cc1OC (configuration not stated)
750 s | CC(=O)N1CCc2cc(CNS(=O)(=O)Cc3ccccc3)ccc21
996 s | CC1(C)CC(=O)C2=C(C1)N(Cc1ccco1)C(=O)C2(NC(=O)CCc1ccccc1)C(F)(F)F (configuration not stated)
1170 s | Cc1ccc(S(=O)(=O)N2CCc3nc(-c4ccccc4)ncc3C2)c(C)c1
748 s | O=C(c1ccc2cc[nH]c2c1)N1CCN(c2cc(-c3ccccc3)[nH]n2)CC1
786 s | O=C(Nc1nnc(C2CC(=O)N(c3ccc(Cl)cc3)C2)o1)c1cccc(F)c1 (configuration not stated)
807 s | Cc1ccc2nc(-c3cccc(Cl)c3)c(Nc3ccccc3C)n2c1
712 s | CCOCCCNC(=O)Cn1c(=O)c2cccn2c2ccc(F)cc21
923 s | COc1ccc(-c2nc(N3CCCCC3)ncc2C(=O)O)cc1
775 s | Cc1noc(C)c1C1CCCN1C(=O)CCc1ccccc1 (configuration not stated)
841 s | CCCN1C(=O)COc2cc(-c3noc(C(=O)NCC4CCCO4)n3)ccc21 (configuration not stated)
609 s | CNC(=O)C1CN(C(=O)c2ccccc2C(F)(F)F)CC12CCCC2 (configuration not stated)
658 s | Cc1cnc(-n2nnc(C(=O)N3CCOCC3)c2C)s1
802 s | CC(C)c1ccc(S(=O)(=O)N2C[C@@H](F)C[C@H]2C(=O)N2CCOCC2)cc1
993 s | COc1cccc(-n2c(N3CCCC(C(=O)Nc4ccc(F)c(F)c4)C3)nc3ccsc3c2=O)c1 (configuration not stated)

RP-LC retention time | SMILES
699 s | CC(NC(=O)C1CCN(Cc2cn(C)c3ccccc23)CC1)c1ccc(F)cc1 (configuration not stated)
976 s | CC(C)C(=O)N1CCc2c([nH]c3ccccc23)C12C(=O)N(C)c1ccc(Br)cc12 (configuration not stated)
963 s | Cc1nc(-c2ccc(-c3noc(C(C)NC(=O)c4ccccc4)n3)cc2)cs1 (configuration not stated)
971 s | O=C(COc1ccc(Cl)cc1)Oc1ccc2nc(N3CCOCC3)sc2c1
924 s | O=C(CCC1CCCC1)NCCC1CCN(C(=O)Nc2cc(F)ccc2F)CC1
811 s | Cn1c(=O)n(C)c2cc(CNc3ccc(N4CCOCC4)c(Cl)c3)ccc21
825 s | CN(C)c1cc(-n2cnc(C(=O)NCc3ccc(Cl)cc3)c2)ncn1
953 s | Cc1cc(C)cc(NC(=O)C2CCN(S(=O)(=O)c3cc(-c4noc(C)n4)cs3)CC2)c1
1110 s | COc1ccc2oc(-c3csc(NC(=O)c4ccc([N+](=O)[O-])s4)n3)cc2c1
581 s | CC(=O)Nc1ccc(S(=O)(=O)N2CCC(CC(=O)N3CCN(c4ccccn4)CC3)CC2)cc1
603 s | CCN1CCN(c2ncc(N3CCC(C(=O)NCc4cccs4)CC3)cn2)CC1
616 s | Cc1nnc(N2CCCC(C(=O)NCCCN3CCCC3=O)C2)c2nn(-c3ccccc3)c(C)c12 (configuration not stated)
633 s | CC1=C(c2ccc(Cl)cc2)S(=O)(=O)N=C1N1CCCN(C(=O)Cn2ccnc2)CC1
596 s | Cc1cccc(NC(=O)N2CCN(c3cc(N4CCCCC4)ncn3)CC2)c1C
758 s | CCOc1ccc(C(=O)N2C[C@@H]3C[C@H]2C[C@@H]3NC(=O)c2cccs2)cc1
929 s | Brc1ccc(-c2nc(-c3ccn4cnnc4c3)no2)cc1
628 s | CCc1nc2cc(N3CCC(C(=O)NC(C)c4ccccn4)CC3)cnc2nc1CC (configuration not stated)

Further lines, the compound ahead of its results:

SMILES | RP-LC retention time
O=C(c1ccc2c(c1)CCCC2)N1CCN(c2ccccc2)CC1 | 1050 s
CN(CCc1noc(-c2ccc(F)cc2)n1)C(=O)NCCc1ccccc1 | 909 s
COc1cc(NC(=O)[C@@H]2[C@H](c3cc(OC)c(OC)c(OC)c3)c3cc4c(cc3[C@H](O)[C@H]2CO)OCO4)cc(OC)c1 | 767 s
CCn1c(CCC(=O)NCc2cccc(F)c2)nc2ccccc2c1=O | 700 s
CN1C(=O)Cc2ccccc2C1C(=O)NCc1ccc(F)cc1 (configuration not stated) | 706 s
CCOC(=O)c1ccccc1NC(=O)CSc1nnc2c3cc(-c4ccc(C)cc4)nn3ccn12 | 1080 s
COC(=O)c1cc(S(=O)(=O)N2CCN(c3ccccn3)CC2)c(C)n1C | 630 s
CCC(C(=O)Nc1c(-c2ccc(OC)cc2)nc2cc(C)ccn12)c1ccccc1 (configuration not stated) | 713 s
CCCNC(=O)CSc1cc(NCc2ccc(Cl)cc2)ncn1 | 778 s
CCCn1cc(CCNC(=O)c2ccccc2C)c2cccnc21 | 748 s
O=C(NCC1CCN(C(=O)c2cc3ccccc3o2)CC1)Nc1c(F)cccc1F | 729 s
CC1CCCN(c2nn(CC(=O)Nc3ccccc3F)c(=O)c3ccccc23)C1 (configuration not stated) | 1140 s
CS(=O)(=O)c1ccc(Nc2nc(C(=O)Nc3ccc(F)c(Cl)c3)cs2)cc1 | 843 s
COCc1nc2nccc(-c3ccc(OC)cc3F)n2n1 | 711 s
O=C(CC1CCCC1)N1CCCCC1c1nncn1CC1CC1 (configuration not stated) | 781 s
Cc1ccc(NC(=O)CN2C(=O)CCCc3cc(S(=O)(=O)N4CCCC4)ccc32)c(Cl)c1 | 912 s
CCc1ccccc1NC(=O)Cn1c(=O)nc(N2CCC(C)CC2)c2ccccc21 | 898 s
O=C(NCc1ccccn1)c1ccc2c(c1)N(CC(=O)N1CCCC1)C(=O)CO2 | 573 s
COc1ccc(-c2coc3cc(OCc4ccc([N+](=O)[O-])cc4)ccc3c2=O)cc1OC | 991 s
Cc1cc2c(c(=O)n(-c3ccc(F)cc3)c(=O)n2CC(=O)Nc2cccc(C(C)C)c2)n1C | 921 s
Nc1ccc2c(c1)S(=O)(=O)c1cc(N)ccc1-2 | 635 s
CCOC(=O)c1csc(NC(=O)c2ccc3c(c2)OCCO3)n1 | 782 s
CC[C@@H]1C(=O)N(C)c2cnc(Nc3ccc(C(=O)NC4CCN(C)CC4)cc3OC)nc2N1C1CCCC1 | 624 s
CCOC(=O)C1CCN(c2cc3c(cc2NC(=O)CC2CCCCC2)n(C)c(=O)c(=O)n3C)CC1 | 981 s
CCc1onc(C)c1C1CCCN1C(=O)c1ccc(F)cc1 (configuration not stated) | 736 s
Fc1ccc(-c2nc3ncccn3c2NCc2ccc(Cl)cc2)cc1 | 782 s

SMILES | RP-LC retention time
COc1ccc(Cl)cc1S(=O)(=O)N1CCC(n2cnnc2-c2ccccc2)CC1 | 825 s
CCc1cccc(NC(=O)Cc2nnc3cc(-c4nc(C(C)C)no4)ccn23)c1 | 918 s
CCC(=O)Nc1c(C)noc1/C=C\c1ccc(S(=O)(=O)N2CCCCC2C)cc1 (configuration not stated) | 915 s
CN1C(=O)CO[C@@H](C(=O)Nc2cccc(F)c2)[C@@H]1c1ccccc1 | 782 s
Cc1ccc(Cn2c(=O)c3nn(C)cc3n3c(=O)n(Cc4ccc(N5CCCC5=O)cc4)nc23)cc1 | 812 s
COc1cc(C(=O)Nc2nc(-c3ccc(F)cc3)cs2)cc(OC)c1OC | 1040 s
COc1ccccc1N1C=C(C#N)S(=O)(=O)c2ccccc21 | 871 s
COc1ccccc1NC(=O)N1CCC(CNC(=O)c2ccccc2C(F)(F)F)CC1 | 763 s
Cc1ccc(CNC(=O)c2ccc3nn(CC(=O)NCCC4=CCCCC4)c(=O)n3c2)cc1 | 857 s
Cc1ccc(N2C(=O)CC(Nc3ccc(N4CCOCC4)cc3)C2=O)c(Br)c1 (configuration not stated) | 618 s
COc1cccc(CN2CCn3c(nnc3[C@@H]3C[C@@H](O)CN3Cc3ccccc3)C2)c1 | 622 s
CCC(CC)C(=O)Nc1nc(-c2ccc3c(c2)N(C)C(=O)CO3)c(C)s1 | 962 s
CC(C)n1c(=O)sc2cc(S(=O)(=O)N3CCC(C(=O)N(C)Cc4ccccc4)CC3)ccc21 | 997 s
COc1ccc(NC(=O)CSc2nccc(N3CCN(c4cc(C)ccc4C)CC3)n2)c(OC)c1 | 980 s
CCc1nc(-c2cc(S(=O)(=O)Nc3ccc(F)cc3F)c(C)s2)cs1 | 994 s
CN(CC1CCOC1)C(=O)Nc1c(F)cccc1F (configuration not stated) | 638 s
CCCc1noc(-c2ccnc(-n3ncc(C(=O)NC4CCCC4)c3C)c2)n1 | 640 s
Cc1oc(C2CCN(C(=O)COc3ccccc3)CC2)nc1C(=O)N1CCCCC1 | 796 s
COCCn1cc(C(=O)Nc2ccc(F)cc2F)c2nn(-c3ccccc3)c(=O)c-2c1 | 1010 s
O=C([C@@H]1C[C@H](F)CN1C(=O)Nc1ccccc1Cl)N1CCCCC1 | 732 s
Cc1cccc2c(=O)c3c([nH]c12)CCN(CC(=O)NCc1ccccc1)C3 | 601 s
O=C(CSc1nnc(CCc2nc3ccccc3[nH]2)o1)NCc1c(F)cccc1F | 571 s
CC(=O)Nc1c(C)noc1/C=C\c1ccc(C)c(S(=O)(=O)N2CCN(c3ccccn3)CC2)c1 | 666 s
Cc1ccc(NC(=O)Nc2ccc(CC(N)=O)cc2)cc1C | 675 s
CC1CCN(CCNC(=O)Cn2c(=O)n(-c3ccc(F)cc3)c3ncccc32)CC1 | 614 s
CCc1cc(C2CCCN2Cc2cc(OC)c(O)c(OC)c2)on1 (configuration not stated) | 575 s
